Values joined by “and” are separate entries in the source; they are usually repeats but may differ in a detail not shown here. Equal entries are not always repeated.
Experiments:
C57BL/6J mice = test: Spectacle lens-induced myopia (−15 D lens) model, ocular biometry (axial length, refraction) after 0.01% atropine pre-treatment; format: in vivo; settings: for Change in AL, Avg +/− SEM: Group 2 mean (n=7), 0.01% atropine pre-treatment for 2 weeks
Method: Animals: Three weeks old C57BL/6J mice were purchased from InVivos, Singapore and were held at the animal holding unit of SingHealth Experimental Medicine Centre. The experimental animals were housed individually in standard mouse cages at 25° C. on a schedule of 12:12 h of light on (325 lx) and off (0 lx), with mouse pellets and water available ad libidum. All the procedures performed in this study complied with the Association of Research in Vision and Ophthalmology (ARVO) Statement for the Use of Animals in Ophthalmic and Vision Research and were approved by SingHealth IACUC. Both the eyes of each animal were screened for the ophthalmic abnormalities, such as corneal opacities and anterior polar cataracts.
Mouse model of experimental myopia: Spectacle lens-induced myopia model was established by placing −15 D hard lens on the right eye of the animal, which served as the experimental eye, at post-natal day 35. Briefly, a −15 D lens (PMMA spectacle lens in blue tint, radius of outer curvature 8.5, inner curvature 8 mm, lens thickness 0.5 mm, Flexilens, India) was glued to an annulus (with 8 mm base curve) of Velcro. This mating piece was then attached to the Velcro that had been previously glued to the hair around the right experimental eye using a cyanoacrylate (Super Glue gel, UHU, Germany). This set up ensures that an air gap of 1.5 mm existed between the back part of the lens and the anterior surface of the cornea, so that the contact lens optically acted as a spectacle lens. The right eye of naïve group was attached with plano lens and acted as a negative control in the experimental study. Both the eyes in each animal were examined daily for any infection and the lenses were also cleaned regularly in dim red light. Left eyes were kept uncovered and were not used for any ocular biometry measurement in this study. Elizabethan collars made from thin plastic were fitted around the neck of each mouse upon lens-induction. This was done so as to prevent the mice from removing their lenses. Food pellets were placed on the floor of the cage to make eating easier. This strategy has also been followed previously by other groups doing mouse model of lens-induced myopia (Schaeffel et al., 2004).
Treatment protocols: A total of 27 mice were divided into 4 different groups as mentioned in Table 1, below. […] 7 μL of drug was administered topically to the right eye in dim red light at the same time each day. This was followed by lens (either −15 D or plano) induction on post-natal day 35, that was kept attached until day 49.
(§1) Ocular biometry such as axial length (AL) and refraction measurements were measured as described in Example 2. The measurements were done just before and 2 weeks after lens-induction, at days 35 and 49, respectively. The data was analyzed using the GraphPad Prism software version 7.02. Changes in AL and refraction between any two groups were analyzed using independent unpaired t-tests. A difference at p value<0.05 was considered statistically significant. Data are reported as mean+/−SEM. The body weights were recorded at post-natal days 22, 35 and 49.

patients = test: Adverse effects of treatment with very low concentration atropine composition (pupil dilation, loss of accommodation); format: in vivo, human; settings: composition with very low concentration of atropine (less than 0.025%, e.g. 0.01%); mean +/− SD
Source text: The pupil dilation associated with the treatment is often no greater than 2 mm, e.g., no greater than 1.9 mm, no greater than 1.8 mm, no greater than 1.7 mm, no greater than 1.5 mm, or no greater than 1.49 mm. Typically, patients treated with the composition disclosed above may experience pupil dilation of 0.74+/−0.75 mm. The loss of accommodation associated with the treatment is also minimal, typically no greater than 10 D, e.g., no greater than 9 D, no greater than 8.5 D, no greater than 8.8 D, or no greater than 8 D. Typically, patents treated with the composition disclosed above may experience a loss of accommodation of 4.6+/−4.2 D.

myopic children = settings: 0.01% atropine daily, cited from earlier work
[1] = Body weights in the lens-induced myopia study; format: in vivo, mice; settings: 0.01% atropine topical; post-natal days 22, 35 and 49
Method: as §1, with “49. […] Changes in AL and refraction at day 49 relative to measurements at day 35 are shown in FIG. 3A and FIG. 3B, respectively.” for “49.”

B6J (Mus musculus) mice = test: Murine myopia model (−10 D lens), atropine sulfate eye drops prior to inducing myopia, ocular biometry; format: in vivo
Method: Animals: Breeding pair B6J (Mus musculus) mice were obtained from Jackson Lab and produced offspring. Naive control animals were housed in groups of 6 while experimental animals were housed individually in standard mouse cages after 21 days of age at 25° C. on a schedule of 12:12 h of light on and off with mouse pellets and water available ad libidum. Approval was obtained from the SingHealth Institutional Animal Care and Use of Committee (IACUC) and all procedures performed in this study complied with the Association of Research in Vision and Ophthalmology (ARVO) Statement for the Use of Animals in Ophthalmology and Vision Research.
Murine Myopia Model: A −10 D contact lens (PMMA Contact Lens in Grey Tint, 8.5 mm diameter, 8 mm base curve, refractive Index: 1.43, axial thickness: 0.5 mm) was placed over the right eye on day 21 by gluing to an annulus of velcro, and then attaching to a matching piece of velcro that had been previously sutured to the skin around the eye. The spectacle lenses were cleaned daily in dim light and left eyes were uncovered and served as controls. […]
Ocular biometry assessment: Refractions and biometry measurements were recorded every week until the end of the study. Axial length was measured with in vivo Optic Low Coherence Interferometry (OLCI-AcMaster). Refraction was measured by automated eccentric photorefractor. […]

[2] = Group 2, 0.01% atropine pre-treatment day 22-35, 2 weeks after −15 D lens induction, individual mice
[3] = Group 2, 0.01% atropine pre-treatment, day 49 relative to day 35, −15 D lens, individual mice

## CN1[C@@H]2CC[C@H]1C[C@@H](OC(=O)C(CO)c1ccccc1)C2 (stereo partly shown) [Atropine, atropine]
C57BL/6J mice; 0.01% atropine topical for 2 weeks before lens-induction, two-tailed p-value=0.1557
  Reduction of the increase in AL as compared to vehicle pre-treated myopic eyes: ~15%
C57BL/6J mice; Group 2, 0.01% atropine 7 μL topical daily, day 22-35, right eye, just before −15 D lens induction, individual mice
  Refraction at D35: 7.44 Diopter and 3.71 Diopter and 7.66 Diopter and 5.96 Diopter and 5.29 Diopter and 5.43 Diopter and 8.34 Diopter
C57BL/6J mice; Group 2, 0.01% atropine 7 μL topical daily, post-natal day 22-35, right eye, just before −15 D lens induction, individual mice
  AL at D35: 3.189 mm and 3.159 mm and 3.195 mm and 3.214 mm and 3.297 mm and 3.250 mm and 3.269 mm
C57BL/6J mice; [2]
  AL at D49: 3.268 mm and 3.238 mm and 3.277 mm and 3.340 mm and 3.374 mm and 3.335 mm and 3.386 mm
  Refraction at D49: 5.22 Diopter and −1.85 Diopter and 6.30 Diopter and 6.26 Diopter and 6.27 Diopter and 4.17 Diopter and 8.14 Diopter
C57BL/6J mice; [3]
  Change in AL: 0.079 mm (2×) and 0.082 mm and 0.126 mm and 0.077 mm and 0.084 mm and 0.117 mm
  Change in refraction: −2.22 Diopter and −5.57 Diopter and −1.37 Diopter and 0.30 Diopter and 0.99 Diopter and −1.26 Diopter and −0.20 Diopter
C57BL/6J mice; day 49 relative to day 35, −15 D lens
  Change in AL, Avg +/− SEM: 0.092 mm
C57BL/6J mice; day 49 relative to day 35, −15 D lens, listed as atropine
  Change in AL, Avg +/− SEM: 0.092 mm
patients
  Loss of accommodation: 4.6+/−4.2 D
  Pupil dilation: 0.74+/−0.75 mm
Myopic children; ATOM1 and ATOM2
  Reduction of mean 2-year decline in SE vs placebo: about 58%
Myopic children; placebo about −1.2 D (Chia et al.)
  Mean 2-year decline in SE: ~−0.5 D
[1]
  Impact on body weights: Neither the drug (atropine and vehicle) nor the lens treatment adversely impacted the body weights
B6J (Mus musculus) mice; Atropine sulfate 1% for 2 weeks prior to −10 D lens for 4 weeks, FIG. 1B, p<0.01 vs −10 D lens alone
  Refractive error (refraction state): remained hyperopic
B6J (Mus musculus) mice; Group 2: 1% daily 10 μl topical from day 21 for 2 weeks, then −10 D lens for 4 weeks, FIG. 1A, p<0.01, n=18
  Effect on axial elongation (axial length): blocked most of the elongation of axial length
